According to publication PMC2970562, “High-Affinity Inhibitors of Human NAD^+-Dependent 15-Hydroxyprostaglandin Dehydrogenase: Mechanisms of Inhibition and Structure-Activity Relationships” (PLoS ONE, 2010):
pIC50: −log10 of the molar value. Read-outs that look alike come from different tables or passages of the source.

Columns and labels:
human 15-PGDH [1] = target: T1, human 15-PGDH (Homo sapiens, UniProt P15428); assay: Differential scanning fluorimetry (DSF), thermal stabilization; type: binding; conditions: 1 µM protein, compound 50 or 250 µM, N/A = no unfolding transition observed in DSF; for ∆Tm [°C] NAD+: with 200 µM NAD+; for ∆Tm [°C] NADH: with 200 µM NADH; for ∆Tm [°C] apo: without cofactor
T1 construct: comprising residues 3–256 of the human HPGD gene (GenBank identifier: 1203982); His6 (GHHHHHH, behind the TEV site) (C, cleaved yes); made in house; host or cells: E. coli BL21(DE3)-R3
T1 sequence (P15428 3-256): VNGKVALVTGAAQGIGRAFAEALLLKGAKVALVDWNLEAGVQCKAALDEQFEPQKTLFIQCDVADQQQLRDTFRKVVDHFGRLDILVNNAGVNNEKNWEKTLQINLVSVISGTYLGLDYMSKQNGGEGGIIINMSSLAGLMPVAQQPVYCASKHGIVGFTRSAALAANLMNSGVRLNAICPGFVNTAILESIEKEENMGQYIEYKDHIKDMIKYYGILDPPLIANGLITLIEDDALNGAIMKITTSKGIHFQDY
Experimental: A correlation between the ΔTm and the inhibitory potency has been shown in a number of protein-ligand systems, particularly for kinases [32]–[34].
Studies to assess the thermal stability of human 15-PGDH in presence of compounds were performed as described previously, with variations. Briefly, the protein was diluted to a final assay concentration of 1 µM in 100 mM Tris buffer pH 8.0, containing 0.01% Tween-20 and 1∶1000 SYPRO orange dye (Invitrogen). […] Compounds were added at a ratio of 1∶5 from appropriate stock solutions in 10% (v/v) DMSO to comprise either 50 or 250 µM final concentrations. Heat denaturation curves were recorded using a RT-PCR instrument (Mx3005p, Agilent) applying a temperature gradient of 2°C/min. […] 2.5 (ftp://ftp.sgc.ox.ac.uk/pub/biophysics) and PRISM 5.0 (GraphPad Software, Inc.).

human 15-PGDH [2] = target: T1, human 15-PGDH; assay: qHTS and 24-point re-test: fluorescence assay of NAD+ reduction to NADH on PGE2 oxidation (PubChem AID 894); type: biochemical; conditions: read-out: qHTS IC50
Experimental: The assay was miniaturized to a 4-µL volume in 1536-well format: enzyme (3 µL) was dispensed first, followed by a pintool transfer of library compounds dissolved in DMSO. After equilibration, a substrate dispense (1 µL) initiated the enzymatic reaction (see Materials and Methods, for detailed protocol description). […] Hits associated with low-efficacy (<40% maximum inhibition), incomplete curves, as well as those displaying only a single-point inhibition at the top concentration tested were eliminated from further consideration. Similarly, the collection of real-time kinetic data allowed the autofluorescence of each compound to be evaluated by comparing the initial fluorescence read at top concentration with the mean value of uninhibited assay controls: compounds whose top-concentration initial well fluorescence exceeded six standard deviations over the mean were flagged as potential autofluorescent artifacts, [28] (see example in supplementary information Figure S1E). The complete screening and followup results are available in PubChem (PubChem Assay ID 894).
The enzymatic reaction was performed in 50 mM Tris-HCl pH 8.0, containing 0.01% Tween 20. […] The high-throughput screen was performed on a fully integrated robotic system (Kalypsys Inc, San Diego, CA) as described elsewhere. Library compounds, arrayed as seven-point inter-plate concentration series, were screened from the lowest (3.5 nM) to the highest (57.5 µM) concentration, with plates containing DMSO only, serving to note any systematic drifts in the signal, interspersed evenly throughout the screen (approximately every 50 plates). Briefly, 3 µL of reagents were dispensed into 1536-well Greiner black solid-bottom assay plates using integrated nanoliter solenoid-technology dispensers. Compounds and controls (23 nL) were transferred via Kalypsys pintool equipped with 1,536-pin array (10-nL slotted pins; V&P Scientific, Palo Alto, CA). After a 15-minute incubation (to allow for interaction between compound and enzyme), a 1-µL substrate addition step initiated the reaction. Kinetic data were collected on a ViewLux High-throughput CCD imager (Perkin-Elmer) equipped with standard UV fluorescence optics (exc. 340 nm, em. 450 nm).
Starting fluorescence intensity and the change in fluorescence over the two-minute initial rate period were recorded for every well. Screening data were normalized against no-enzyme (64 wells, columns 3 and 4) and no-compound (32 wells located in column 1) controls, and concentration-response relationships were derived as described previously. A four-parameter Hill equation [47] was fitted to the concentration-response data using publicly available algorithms (http://www.ncgc.nih.gov/pub/openhts/curvefit/).

[3] = potency in 24-point titrations on re-test, 20 nM 15-PGDH, 1 mM NAD+, 30 µM PGE2, pH 8.0

SMILES | ∆Tm [°C] NAD+ (human 15-PGDH [1]) [°C] | ∆Tm [°C] NADH (human 15-PGDH [1]) [°C] | ∆Tm [°C] apo (human 15-PGDH [1]) [°C] | pIC50 (human 15-PGDH [2]; [3]) | pIC50 (human 15-PGDH [2])
O=c1c2ccccc2sn1-c1cc(S(=O)(=O)N2CCOCC2)ccc1N1CCCC1 [Compound 71] | 2.4 | -0.4 | -1.8 | 5.60 | –
CN(CCc1ccccn1)CC(=O)Nc1ccc(OC(F)(F)F)cc1 [Compound 78] | 4.0 | -7.6 | -7.4 | 5.60 | –
Cc1cc([N+](=O)[O-])c2c(c1C)[C@@H]1C=CC[C@@H]1C(c1cccc(Cl)c1)N2 (some centres unmarked) [Compound 37] | 1.1 | 5.0 | -2.0 | 5.70 | –
CCCCCCOCCCCc1ccc(-c2ccc(OCCCCCCC3CC3)nc2)nn1 [Compound 3] | 2.1 | 6.7 | -0.6 | 6.25 | –
CC1CCCN(C(=O)c2ccc(COc3ccccc3Br)cc2)C1 (centres unmarked) [Compound 11] | 3.8 | 10.6 | -0.4 | 6.90 | –
Fc1ccccc1CSc1nc2cc(Br)cnc2[nH]1 [Compound 60] | 7.6 | 1.5 | -0.2 | 6.20 | –
Cc1cc(NC(=O)COC(=O)c2cccc(S(=O)(=O)NC(C)(C)C)c2)no1 [Compound 16] | 3.5 | 7.8 | -1.8 | 6.65 | –
COc1ccc(CNC(=O)CCn2c(-c3cccc(C)c3)n[nH]c2=S)cc1 [Compound 65] | – | -0.2 | – | 6.20 | –
Cc1ccc(-c2nnc(S)n2N=CC=Cc2ccccc2[N+](=O)[O-])cc1 [Compound 80] | 4.5 | 0.2 | – | 6.30 | –
COc1ccc(NS(=O)(=O)Cc2ccccc2Cl)cc1 [Compound 42] | 7.5 | 4.8 | -0.5 | 6.50 | –
COc1ccccc1C(=O)Nc1ccc(C(=O)N2CCCC2)cc1 [Compound 4] | 2.2 | 4.7 | 0.3 | 6.00 | –
C=CCOC12Oc3ccc(Oc4ccc(OC)c(C=O)c4)cc3C3C(CCCCO)C(CCCCO)C=C(C(=NOCC)CC1N(CCC)C(=O)OCCOCc1ccccc1)C32 (centres unmarked) [Compound 14] | 3.2 | 7.8 | -1.0 | 6.60 | –
Cc1cc(C(=O)N2CCN(C)CC2)c(C)n1C1CC1 [Compound 59] | 6.9 | 1.7 | -6.1 | 5.65 | –
COc1ccccc1NS(=O)(=O)c1cc(C(=O)N2CCC2)ccc1C [Compound 30] | 2.4 | 6.4 | 0.2 | 6.25 | –
CC1CCN(C(=O)c2ccc(CSc3ccc(Cl)cc3)cc2)CC1 [Compound 5] | 2.3 | 7.1 | -0.8 | – | 6.20
CC(C)(C)OC(=O)NC(Cc1csc2ccccc12)C(=O)CCc1cc(C(F)(F)F)cc(C(F)(F)F)c1 (centres unmarked) [Compound 50] | 1.9 | 1.7 | -1.9 | 5.20 | –

SMILES | ∆Tm [°C] NAD+ (human 15-PGDH [1]) [°C] | ∆Tm [°C] NADH (human 15-PGDH [1]) [°C] | ∆Tm [°C] apo (human 15-PGDH [1]) [°C] | pIC50 (human 15-PGDH [2]; [3]) | pIC50 (human 15-PGDH [2])
CCN(CC)C(=O)c1sc2nc(-c3cccs3)cc(-c3ccc(Cl)cc3)c2c1N [Compound 36] | 0.9 | 2.9 | -1.5 | 5.00 | –
C=CCn1c(=NC(=O)c2cc(C)n(C)n2)sc2cc(Cl)ccc21 [Compound 66] | – | -0.7 | – | 6.45 | –
O=C(c1ccc(COc2ccccc2Br)cc1)N1CCCCC1 [Compound 7] | 7.1 | 10.6 | -0.1 | – | 7.05
CN(C)C(=O)C(NCCc1c[nH]c2ccccc12)c1ccccc1 (centres unmarked) [Compound 29] | 2.7 | 8.4 | -0.1 | 6.30 | –
CCCC(NC(=O)Cn1c(-c2cccs2)n[nH]c1=S)c1ccccc1 (centres unmarked) [Compound 23] | 1.2 | 1.6 | -0.4 | 5.65 | –
C[C@H]1CCCCN1C(=O)CSc1nnc(-c2ccccc2F)o1 [Compound 17] | 3.3 | 4.4 | 0.1 | 6.15 | –
CCCC(CCCCCCC(=O)c1cn(CCCC(=O)OCC)c2ccccc12)c1ccc(CC(C)C)cc1 (centres unmarked) [Compound 34] | 2.0 | 6.4 | 0.1 | 6.10 | –
COc1ccc(C(=O)c2ccccc2O)c(O)c1 [Compound 85] | – | – | – | 6.00 | –
N#Cc1c(NC(=O)COC(=O)C23CC4CC(CC(C4)C2)C3)sc2c1CCCCC2 [Compound 75] | – | – | – | 5.60 | –
O=C(COc1ccc(F)cc1Cl)Nc1cccc(C(=O)NC2CC2)c1 [Compound 63] | – | – | – | 6.35 | –
O=C(C=Cc1ccco1)Nc1cc(Cl)c(O)c(Cl)c1 [Compound 43] | – | – | – | 6.40 | –
CC1CCN(C(=O)CCc2ccc(Oc3cc([N+](=O)[O-])cc([N+](=O)[O-])c3)cc2)CC1 [Compound 22] | – | – | – | 6.05 | –
CC1=NOC(=O)C1=Cc1ccc(-c2ccc(Cl)cc2)o1 [Compound 64] | – | – | – | 5.95 | –
CC(=O)Nc1ccc(NC(=O)CSc2nc3c(cc2C#N)CCC3)cc1 [Compound 10] | – | – | – | 6.55 | –
Cc1ccc(NC(=O)COc2cccc(C=C(C#N)C(=O)Nc3cccc(Cl)c3C)c2)cc1C [Compound 77] | – | – | – | 4.85 | –
